≈ marks a conversion by molar mass, not a printed value.
Legend:
Format in all cases: physicochemical
[1] = Moisture sorption analysis; conditions: for XRPD following moisture sorption analysis: after 0-95% RH cycles at 25° C.; for Hygroscopicity: moisture sorption, 0-95% RH cycles; for Hygroscopicity / Water adsorbed / Hysteresis upon desorption: 25° C.; for Water adsorbed: at 95 %RH; for Hysteresis upon desorption: moisture sorption-desorption
Experimental: (§1) Moisture sorption analysis of the starting material was performed by equilibrating the sample at 25° C. and 50% RH to simulate ambient lab conditions. Humidity then decreased to 0% RH, increased from 0 to 95% RH, reduced from 95 to 0% RH, increased from 0 to 95 %RH and then decreased from 95 to 50% RH. Each point represents the estimated asymptotic weight for each humidity or weight. […] No hysteresis was observed upon desorption (FIG. 14).
as §1, with “of Pattern E (from” for “of”, “300 mg scale lot)” for “starting material”, “Humidity was” for “Humidity”, “19).” for “14).”
Moisture sorption analysis of Pattern C (300 mg lot) was performed by equilibrating the sample at 25° C. and 50% RH to simulate ambient lab conditions. Humidity was then decreased to 0% RH, increased from 0 to 95% RH, reduced from 95 to 0% RH, increased from 0 to 95%RH and then decreased from 95 to 50% RH. Each point represents the estimated asymptotic weight for each humidity or weight. […] This increased the total water to about 6% which is the water content of mono-hydrate. However, upon reducing the relative humidity, the solid lost its water. Therefore this could be a channel hydrate. No hysteresis was observed upon desorption (FIG. 24).
as §1, with “Pattern B (300 mg lot)” for “the starting material”, “The major weight loss at the beginning” for “No hysteresis”, “due to loss of solvent.” for “observed upon desorption (FIG. 14).”
as §1, with “Pattern F (from Example 6)” for “the starting material”, “Humidity was” for “Humidity”, “The major weight loss at the beginning is due to loss of solvent.” for “No hysteresis was observed upon desorption (FIG. 14).”

[2] = 7 day elevated aqueous humidity studies; conditions: for Visual Observations 1 day / Visual Observations 7 day / XRPD [Pattern] 7 day: > 95 %RH at Ambient; for XRPD [Pattern] 7 day: form after 7 days; for Stability to elevated humidity: Example 8, summary statement
Experimental: 7 day elevated aqueous humidity experiments were performed on all Patterns A, B, C, D, E and F at ambient conditions at > 95%RH (Table 17). Approximately 30 mg of each pattern was weighed into a 4 ml glass vial. The uncovered 4 ml vial was inserted into a 20 ml scintillation vial half filled with water and capped. Following 24 hours of equilibration, visual inspection was performed to check for changes in physical appearance, however no change was observed.

[3] = Aqueous solubility (HPLC); conditions: water, ambient conditions, 24 hours of equilibration
Experimental: Aqueous solubility of Patterns A, B, C, E and F was performed using an Agilent HPLC system. Approximately 10-20 mg of each form was charged to a 2 mL glass vial loaded with a magnetic stir bar and added 2 mL of water. The samples were allowed to stir overnight at ambient conditions. Following 24 hours of equilibration the samples were centrifuged and decanted into HPLC vials. A calibration curve was generated based on Pattern A in MeOH at 0.05, 0.1, 0.5 and 1.0 mg/mL. Following injection of the standard curve, the samples were run as is.

Structure (SMILES)	XRPD following moisture sorption analysis [1]	Hygroscopicity [1]	Hygroscopicity ([1]; listed as Form IV)	Visual Observations 1 day [2]	Visual Observations 7 day [2]	XRPD [Pattern] 7 day [2]	XRPD [Pattern] 7 day ([2]; listed as B)	Solubility (aqueous) [3] [µg/mL]	Total water after adsorption ([1]; at 95%RH)	Water adsorbed [1] [%]	Hysteresis upon desorption [1]	XRPD [Pattern] 7 day ([2]; listed as C)	Stability to elevated humidity [2]	XRPD [Pattern] 7 day ([2]; listed as D)	Hygroscopicity ([1]; listed as Form II)	XRPD [Pattern] 7 day ([2]; listed as E)	Hygroscopicity ([1]; listed as Form VI)	XRPD [Pattern] 7 day ([2]; listed as F)
CC1=C(C)C(=O)C(CC[C@@](C)(O)C(N)=O)=C(C)C1=O [Pattern B, (R)-2-hydroxy-2-methyl-4-(2,4,5-trimethyl-3,6-dioxocyclohexa-1,4-dienyl)butanamide]	consistent with Pattern A	non-hygroscopic	non-hygroscopic	Yellow solids	Yellow solids	mixture of Patterns A/B	Crystalline [Mixture of Patterns A/B]	1300 (≈ 4.9 mM)										
CC1=C(C)C(=O)C(CC[C@@](C)(O)C(N)=O)=C(C)C1=O [Pattern C, (R)-2-hydroxy-2-methyl-4-(2,4,5-trimethyl-3,6-dioxocyclohexa-1,4-dienyl)butanamide]	consistent with Pattern C	slightly hygroscopic		Yellow solids	Yellow solids	no change in form		1320 (≈ 4.98 mM)	about 6%	2	No hysteresis	Crystalline [Pattern C]	stability to elevated humidity					
CC1=C(C)C(=O)C(CC[C@@](C)(O)C(N)=O)=C(C)C1=O [Pattern D, (R)-2-hydroxy-2-methyl-4-(2,4,5-trimethyl-3,6-dioxocyclohexa-1,4-dienyl)butanamide]				Yellow solids	Yellow solids	mixture of Patterns D/B								Crystalline [Mixture of Patterns D/B]				
CC1=C(C)C(=O)C(CC[C@@](C)(O)C(N)=O)=C(C)C1=O [Pattern E, (R)-2-hydroxy-2-methyl-4-(2,4,5-trimethyl-3,6-dioxocyclohexa-1,4-dienyl)butanamide]	consistent with Pattern E	non-hygroscopic		Yellow solids	Yellow solids	no change in form		1320 (≈ 4.98 mM)		0.2	No hysteresis		stability to elevated humidity		non-hygroscopic	Crystalline [Pattern E]		
CC1=C(C)C(=O)C(CC[C@@](C)(O)C(N)=O)=C(C)C1=O [Pattern F, (R)-2-hydroxy-2-methyl-4-(2,4,5-trimethyl-3,6-dioxocyclohexa-1,4-dienyl)butanamide]	consistent with Pattern E	non-hygroscopic		Yellow solids	Yellow solids	converted to Pattern E		1360 (≈ 5.13 mM)									non-hygroscopic	Crystalline [Pattern E]

From patent US20230364029A1, “POLYMORPHIC FORMS OF (R)-2-HYDROXY-2-METHYL-4-(2,4,5-TRIMETHYL-3,6-DIOXOCYCLOHEXA-1,4-DIENYL)BUTANAMIDE” (PTC THERAPEUTICS, INC., priority 2014, published 2023)
